The values that follow are results of earlier work, collected in article PMC9905294 (Biochemistry, 2023).

The target in this data set is Mtb Eis (Mycobacterium tuberculosis, UniProt P9WFK7). Particulars: previously published value; cited from earlier work.
Mtb Eis, sequence (P9WFK7 whole entry): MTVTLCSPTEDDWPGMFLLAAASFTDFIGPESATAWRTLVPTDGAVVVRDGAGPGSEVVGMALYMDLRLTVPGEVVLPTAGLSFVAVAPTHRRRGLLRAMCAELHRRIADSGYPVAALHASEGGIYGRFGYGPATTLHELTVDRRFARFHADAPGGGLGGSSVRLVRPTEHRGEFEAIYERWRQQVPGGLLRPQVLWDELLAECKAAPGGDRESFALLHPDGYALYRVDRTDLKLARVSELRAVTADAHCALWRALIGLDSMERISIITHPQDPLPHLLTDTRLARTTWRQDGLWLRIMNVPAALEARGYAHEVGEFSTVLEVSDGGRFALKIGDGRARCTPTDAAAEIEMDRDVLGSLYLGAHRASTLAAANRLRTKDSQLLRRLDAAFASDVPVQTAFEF

One may read the IC50 as the concentration that inhibits the measured activity by half. As for `[H]/N=C(\N/C(=N/[H])NCCCCCCNC(=N)NC(=N)Nc1ccc(Cl)cc1)Nc1ccc(Cl)cc1` [Chlorhexidine (CHX), Chlorhexidine], the IC50 was 670 ± 190 nM.
